Laboratory results as given in patent publication US7235256B2, “Method of preventing parturient hypocalcemia in animals and compositions used therein” (RJ Innovation, priority 1999, dated 2007).

Assays:
non-lactating (dry) cows = assay: EDTA-infusion test for resistance to hypocalcemia; assay type: in vivo, cow; details: 8 EDTA-tests at 10 days intervals, normal = ionised blood calcium above 1 mmol/l
Text: To investigate the induction of hypocalcemia by intravenous infusion of EDTA in cows, 6 non-lactating (dry) cows were used in this study. Three of these cows were untreated (cow Nos. 168, 169 and 170) and the other three cows (cow Nos. 172, 175 and 176) had been subjected to a pre-treatment consisting of daily doses of anionic salts (Wang and Beede, 1992). This pre-treatment is known to be effective in preventing milk fever. The latter cows were rumen fistulated to facilitate precise daily dosages of the anionic salts.
All cows were tested for resistance to hypocalcemia by the EDTA-infusion technique. A total of 8 EDTA-tests were performed per cow according to the standardised method of Mellau et al. (1998), at 10 days intervals. With the standardised test, infusion of EDTA was performed until the cow went down involuntarily, due to muscle weakness caused by the induced hypocalcemia. The time taken from this point and until the cow regained normal blood calcium concentration, which is defined as an ionised blood calcium value above 1 mmol/l, was recorded. This time is considered to represent the cows' calcium mobilisation rate and therefore also the cows' ability to resist hypocalcemia. The infusion periods varied between individual cows, but were typically in the range of 2–4 hours. […]

dairy cows = assay: Repeated oral zinc oxide administration, serum calcium response; assay type: in vivo, cow; details: lactating cows
Procedure: Six dairy cows were used in this study: Two lactating cows and two dry cows were treated with zinc oxide by mouth at 120 mg/kg body weight, whereas two lactating cows served as untreated controls. Four doses of zinc oxide were given to the treated cows at one-week intervals. Venous blood samples were taken and serum stored at −37° C. for later total calcium determinations. For this purpose blood samples were taken daily from all six cows one hour after morning feeding. Extra samples were taken 5, 11, 23 and 35 hours after zinc oxide administration.

[1] = zinc oxide by mouth 120 mg/kg body weight

Compound | time to regain normal blood calcium concentration (recovery time) after EDTA infusion (non-lactating (dry) cows) | change of calcium balance response with number of doses (dairy cows; four doses at one-week intervals) | minimum serum calcium concentration (dairy cows; [1]) [mmol/L] | time of minimum serum calcium after administration (dairy cows; [1])
O=C(O)CN(CCN(CC(=O)O)CC(=O)O)CC(=O)O [EDTA, ethylenediaminetetraacetic acid] | greatly improved | – | – | –
[O]=[Zn] [zinc oxide] | – | less and less affected | 1.4 to 1.6 | about 24 hours
